Assay results as given in US9133207B2, “Tetrandrine derivatives with substituted 5-carbon, preparation method and use thereof” (Hangzhou Bensheng Pharmaceutical Co., Ltd., priority 2011, dated 2015).
In brackets after ≈: the same amount, converted by molar mass.

Key:
[1] = system: RPMI8226 (multiple myeloma); assay: Multiple myeloma cell growth inhibition, MTT, 72 h (Example 6); type: cell-based, human; settings: 72 h, MTT, RPMI8226; for IC50 / IC90: Homo sapiens, RPMI-8226
Method: Multiple myeloma and lymphoma cell lines: RPMI8226 (multiple myeloma), purchased from Fuxiang Bio-tech Co. Ltd., Shanghai, China.
(§1) Reagents: the same as in Example 5.
Obtaining 6000 well-growing leukemia cells and inoculating them into wells of a 96-well cell culture plate. The culture medium is a 1640 cell culture medium containing 10% fetal bovine serum. After adding the tetrandrine derivatives of different concentrations and mixing uniformly, placing the plate in a carbon dioxide cell incubator (5% CO2) at 37° C. and incubated for 72 hours. Then the viable cell concentration is determined by the MTT method.

A549 (human lung cancer) = assay: Solid tumor cell growth inhibition, MTT, 72 h (Example 7); type: cell-based; settings: 72 h, MTT, A549; for IC50 / IC90: Homo sapiens
Method: (§2) Human solid tumor cell lines: Hep-2 (laryngeal carcinoma), A549 (human lung cancer), CaES-17 (esophageal cancer cell), PC-3 (prostate cancer), CNE (nasopharyngeal carcinoma cell) and SK-OV-3 (ovarian cancer cell), all of which are purchased from China Center For Type Culture Collection; RKO (human colon adenocarcinoma cell), MGC 803 (human gastric cancer cell), MG63 (osteosarcoma), and U87 MG (malignant glioma cell), all of which are purchased from Fuxiang Bio-tech Co. Ltd., Shanghai, China; PANC-1 (pancreatic cancer), Huh? (human liver cancer cell), Becap37 (human breast cancer cell), and Hela (human cervical cancer cell), all of which are donated by Cancer Research Institute of Zhejiang University, China.
as §1
(§3) Obtaining 4000 well-growing human solid tumor cells and inoculating them into wells of a 96-well cell culture plate. The culture medium is DMEM High Glucose cell culture medium containing 10% fetal bovine serum. The plate is placed in a carbon dioxide cell incubator (5% CO2) at 37° C. and incubated for 24 hours. After been added with tetrandrine derivatives of different concentration and mixing uniformly, the plate is placed in a carbon dioxide cell incubator (5% CO2) at 37° C. and incubated for 72 hours. Then the viable cell concentration is determined by the MTT method and the cell viability (%) after drug treatment is calculated. In this experiment, the cell viability of control group (not treated with any compound) is set as 100%.

[2] = system: MGC 803 (human gastric cancer cell); assay: as above; type: cell-based; settings: for IC50 / IC90: Homo sapiens
Method: as §2, §1, §3

[3] = system: Becap37 (human breast cancer cell); assay: as above; type: cell-based; settings: 72 h, MTT, Becap-37; for IC50 / IC90: Homo sapiens
Method: as §2, §1, §3

[4] = system: Huh7 (human liver cancer cell); assay: as above; type: cell-based; settings: 72 h, MTT, Huh-7; for IC50 / IC90: Homo sapiens
Method: as §2, §1, §3

[5] = system: Kasumi-1 (acute myeloid leukemia M2 type, AML-M2); assay: Leukemia cell growth inhibition, MTT, 72 h (Example 5); type: cell-based, human; settings: for IC50 / IC90: Homo sapiens, Kasumi 1
Excerpt: (§4) Leukemia cell lines: leukemia cell lines: K562/adr (drug-resistant, chronic myeloid leukemia, CML), NB4 (acute promyelocytic leukemia, AML), Kasumi-1 (acute myeloid leukemia M2 type, AML-M2), Jurkat (acute lymphoblastic leukemia, ALL), all of which are donated by Cancer Research Institute of Zhejiang University, China; and H9 (acute lymphoblastic leukemia, ALL), which is purchased from China Center for Type Culture Collection.
(§5) Reagents: The standard sample of tetrandrine (TTD) is purchased from Ci Yuan Biotechnology Co., Ltd., Shaanxi, China; and the 5-substituted tetrandrine derivatives of the present invention.
(§6) Obtaining 6000 well-growing leukemia cells and inoculating them into wells of a 96-well cell culture plate. The culture medium is a 1640 cell culture medium containing 10% fetal bovine serum. After adding the tetrandrine derivatives of different concentrations and mixing uniformly, placing the plate in a carbon dioxide cell incubator (5% CO2) at 37° C. and incubating for 72 hours. Then the viable cell concentration is determined by the MTT method.

[6] = system: K562/adr (drug-resistant, chronic myeloid leukemia, CML); assay: as above; type: cell-based, human; settings: 72 h, MTT; for IC50 / IC90: Homo sapiens, K562/Adr
Excerpt: as §4, §5, §6

[7] = system: H9 (acute lymphoblastic leukemia, ALL); assay: as above; type: cell-based, human; settings: 72 h, MTT; for IC50 / IC90: Homo sapiens
Excerpt: as §4, §5, §6

[8] = system: Jurkat (acute lymphoblastic leukemia, ALL); assay: as above; type: cell-based, human; settings: 72 h, MTT; for IC50 / IC90: Homo sapiens, Jurkat
Excerpt: as §4, §5, §6

MG63 (osteosarcoma) = assay: Solid tumor cell growth inhibition, MTT, 72 h (Example 7); type: cell-based, human; settings: 72 h, MTT, MG-63; for IC50 / IC90: Homo sapiens
Method: as §2, §1, §3

[9] = system: PANC-1 (pancreatic cancer); assay: as above; type: cell-based, human; settings: 72 h, MTT, PANC-1; for IC50 / IC90: Homo sapiens
Method: as §2, §1, §3

PC-3 (prostate cancer) = assay: as above; type: cell-based, human; settings: 72 h, MTT, PC-3
Method: as §2, §1, §3

[10] = system: CaES-17 (esophageal cancer cell); assay: as above; type: cell-based, human; settings: 72 h, MTT, CAES-17; for IC50 / IC90: Homo sapiens, CaEs17
Method: as §2, §1, §3

In the case of COc1ccc2cc1Oc1ccc(cc1)C[C@H]1c3cc(c(OC)cc3CCN1C)Oc1c(OC)c(OC)c(CO)c3c1[C@H](C2)N(C)CC3 [BS-TE-213], the “RPMI8226 IC50” value [1] is reported as 1.95 µg/mL, the “RPMI8226 IC90” value [1] is reported as 8 µg/mL and the “A549 IC50” value (A549 (human lung cancer)) is reported as greater than 16 µg/mL. For the same molecule, the “A549 IC90” value (A549 (human lung cancer)) was greater than 16 µg/mL, the “MGC-803 IC50” value [2] was 18.95 µg/mL and the “MGC-803 IC90” value [2] was 64.43 µg/mL. For the same molecule, the “Becap-37 IC50” value [3] was 9.95 µg/mL, the “Becap-37 IC90” value [3] was greater than 10 µg/mL and the “Huh-7 IC50” value [4] was 8.54 µg/mL. For the same molecule, the “Huh-7 IC90” value [4] was 15.09 µg/mL, the “Kasumi-1 IC50” value [5] was 7.74 µg/mL and the “Kasumi-1 IC90” value [5] was greater than 16 µg/mL. The “K562/ADR IC50” value [6] was 3.70 µg/mL, the “K562/ADR IC90” value [6] was 11.11 µg/mL and the “H9 IC50” value [7] was greater than 16 µg/mL. The “H9 IC90” value [7] was greater than 16 µg/mL, the “Jurkat IC50” value [8] was greater than 16 µg/mL and the “Jurkat IC90” value [8] was greater than 16 µg/mL. For the same molecule, the “MG-63 IC50” value (MG63 (osteosarcoma)) was 9.93 µg/mL, the “MG-63 IC90” value (MG63 (osteosarcoma)) was 26.11 µg/mL and the “PANC-1 IC50” value [9] was greater than 10 µg/mL. For the same molecule, the “PANC-1 IC90” value [9] was greater than 10 µg/mL, the “PC-3 IC50” value (PC-3 (prostate cancer)) was greater than 10 µg/mL and the “PC-3 IC90” value (PC-3 (prostate cancer)) was greater than 10 µg/mL. The “CAES-17 IC50” value [10] was 9.89 µg/mL and the “CAES-17 IC90” value [10] was 30.16 µg/mL.
Molecule COc1ccc2cc1Oc1ccc(cc1)C[C@H]1c3cc(c(OC)cc3CCN1C)Oc1c(OC)c(OC)c(COC(=O)c3ccccc3)c3c1[C@H](C2)N(C)CC3 [BS-TE-224] has an IC50 [1] of 0.27 µg/mL (≈ 0.357 µM), an IC90 [1] of 1.44 µg/mL (≈ 1.9 µM) and an IC50 (A549 (human lung cancer)) greater than 16 µg/mL. For the same molecule, the IC90 (A549 (human lung cancer)) was greater than 16 µg/mL, the IC50 [2] was 2.45 µg/mL (≈ 3.24 µM) and the IC90 [2] was 3.72 µg/mL (≈ 4.91 µM). It also gave an IC50 [3] of 2.85 µg/mL (≈ 3.77 µM), an IC90 [3] of 4.18 µg/mL (≈ 5.52 µM) and an IC50 [4] of 2.4 µg/mL (≈ 3.17 µM). It also gave an IC90 [4] of 3.93 µg/mL (≈ 5.19 µM), an IC50 [5] of 3.19 µg/mL (≈ 4.21 µM) and an IC90 [5] of 7.36 µg/mL (≈ 9.72 µM). The IC50 [6] was 0.67 µg/mL (≈ 0.885 µM), the IC90 [6] was 4.65 µg/mL (≈ 6.14 µM) and the IC50 [7] was 2.99 µg/mL (≈ 3.95 µM). For the same molecule, the IC90 [7] was 4.75 µg/mL (≈ 6.28 µM), the IC50 [8] was 3.39 µg/mL (≈ 4.48 µM) and the IC90 [8] was 7.65 µg/mL (≈ 10.1 µM). For the same molecule, the IC50 (MG63 (osteosarcoma)) was 2.76 µg/mL (≈ 3.65 µM), the IC90 (MG63 (osteosarcoma)) was 4.51 µg/mL (≈ 5.96 µM) and the IC50 [9] was 5.68 µg/mL (≈ 7.5 µM). The IC90 [9] was 8.76 µg/mL (≈ 11.6 µM), the IC50 (PC-3 (prostate cancer); Homo sapiens) was 6.38 µg/mL (≈ 8.43 µM) and the IC90 (PC-3 (prostate cancer); Homo sapiens) was 9 µg/mL (≈ 11.9 µM). For the same molecule, the IC50 [10] was 2.4 µg/mL (≈ 3.17 µM) and the IC90 [10] was 7.23 µg/mL (≈ 9.55 µM).
With COc1ccc2cc1Oc1ccc(cc1)C[C@H]1c3cc(c(OC)cc3CCN1C)Oc1c(OC)c(OC)c(CNc3nccs3)c3c1[C@H](C2)N(C)CC3 [BS-TE-320] the IC50 [1] was 0.06 µg/mL (≈ 0.0816 µM), the IC90 [1] was 2 µg/mL (≈ 2.72 µM) and the IC50 (A549 (human lung cancer)) was 2.98 µg/mL (≈ 4.05 µM). For the same molecule, the IC90 (A549 (human lung cancer)) was 7.85 µg/mL (≈ 10.7 µM), the IC50 [2] was 1.72 µg/mL (≈ 2.34 µM) and the IC90 [2] was 2.76 µg/mL (≈ 3.76 µM). It also gave an IC50 [3] of 1.6 µg/mL (≈ 2.18 µM), an IC90 [3] of 2.17 µg/mL (≈ 2.95 µM) and an IC50 [4] of 2 µg/mL (≈ 2.72 µM). The IC90 [4] was 3.92 µg/mL (≈ 5.33 µM), the IC50 [5] was 0.78 µg/mL (≈ 1.06 µM) and the IC90 [5] was 3.65 µg/mL (≈ 4.97 µM). For the same molecule, the IC50 [6] was 0.84 µg/mL (≈ 1.14 µM), the IC90 [6] was 3.36 µg/mL (≈ 4.57 µM) and the IC50 [7] was 1.98 µg/mL (≈ 2.69 µM). It also gave an IC90 [7] of 3.36 µg/mL (≈ 4.57 µM), an IC50 [8] of 2 µg/mL (≈ 2.72 µM) and an IC90 [8] of 6.19 µg/mL (≈ 8.42 µM). It also gave an IC50 (MG63 (osteosarcoma)) of 1.1 µg/mL (≈ 1.5 µM), an IC90 (MG63 (osteosarcoma)) of 2.18 µg/mL (≈ 2.97 µM) and an IC50 [9] of 3.52 µg/mL (≈ 4.79 µM). For the same molecule, the IC90 [9] was 9.25 µg/mL (≈ 12.6 µM), the IC50 [10] was 2.11 µg/mL (≈ 2.87 µM) and the IC90 [10] was 12.2 µg/mL (≈ 16.6 µM).
